Values of other authors, collected in patent US20050277132A1, “Nematode GS-like sequences” (Divergence Inc., a Delaware corporation, priority 2001, published 2005).

Legend:
[1] = test system: everted hamster jejunal and ileal segments
[2] = test system: isolated intestinal epithelial cells
[3] = test system: pathogenic bacteria that are known to secrete glutamine synthetase; settings: bacteria that secrete glutamine synthetase into the extracellular milieu
[4] = test system: bacterial glutamine synthetase enzymes; settings: in vitro and in cell culture
[5] = test system: nonpathogenic bacteria that do not export glutamine synthetase

SMILES | effect on water and electrolyte absorption [1] | cytotoxicity [2] | growth of pathogenic bacteria [3] | times more active against certain bacterial glutamine synthetase enzymes than representative mammalian glutamine synthetases [4] [times] | effect against nonpathogenic bacteria [5]
CCCCCC[C@@H](O)C/C=C\CCCCCCCC(=O)OC [methyl ester of ricinoleic acid] | ineffective | – | – | – | –
CCCCCC[C@@H](O)C/C=C\CCCCCCCC(=O)O [Ricinoleic acid] | inhibitory effect | cytotoxic | – | – | –
CS(=N)(=O)CC[C@H](N)C(=O)O (stereo partly drawn) [L-methionine-S-sulfoximine] | – | – | selectively block growth | 100 | no effect
